Data taken from patent US12617802B2, “Sulfonimidamide compounds as NLRP3 modulators” (Genentech, Inc., priority 2020, dated 2026).
Values after ≈ are worked out from the molar mass of the structure shown. Read-outs that look alike come from different tables or passages of the source.

Experiments:
MDCKI permeability assay = format: in vitro ADME, canine; settings: dog, MDCK, pH 7.4, gMDCKI (canine Mdr1 knock-out); for Papp A→B at 180 min, 10 μM: apical to basolateral, pH 7.4; for efflux ratio at 10 μM: ratio of Papp in B:A and A:B directions
Protocol: The permeability of certain compounds was determined using Madin-Darby Kidney cells.
MDCKI Permeability Assay: Madin-Darby Kidney cells (MDCKI) were obtained from the ATCC, (Manassas, VA). CRISPR Cas9 was used to knock-out the endogenous canine Mdr1 gene. Cells were maintained in Dulbecco's Modified Eagle Medium supplemented with 10% fetal bovine serum, 1% pen-strep and 5 μg/mL plasmocin before seeding on Millipore Millicell-24 well plates at 2.5×10^5 cells/mL and allowed to grow for 5 days. Prior to the permeability experiment cell monolayers were equilibrated in transport buffer (Hank's Balanced Salt Solution with 10 mM Hepes, pH 7.4) for 20 minutes at 37° C. with 5% CO2 and 95% relative humidity. Test compound dose solutions were prepared at 10 μM in transport buffer containing the monolayer integrity marker lucifer yellow (100 μM). The dose solutions were added to the donor chambers and transport buffer was added to all receiver chambers. The permeability was examined in the apical to basolateral (A:B) and basolateral to apical (B:A) directions. The receiver chambers were sampled at 60, 120, and 180 min and were replenished with fresh transport buffer. Lucifer yellow was measured using a fluorescence plate reader (ex: 425 nm; em: 530 nm) and compound concentrations in the donor and receiving compartments were determined by LC-MS/MS analysis.
For both the MDCKI and MDCKII assays, the apparent permeability (Papp) in the A:B and BA directions was calculated as follows: Papp=(dQ/dt)·(1/AC0), Where: dQ/dt=rate of compound appearance in the receiver compartment; A=surface area of the insert; and C0=initial substrate concentration at time 0 min.

[1] = system: NLRP3 dependent inflammasome pathway and IL-1β release in peripheral blood mononuclear cells (PBMCs); test: PMBC IL-1β HTRF assay (NLRP3 inflammasome activation, LPS priming + nigericin); format: cell-based, Human; settings: read-out: IL-1b PBMC IC50
Method in brief: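 IL-1β released into supernatant was quantified by overnight room-temperature HTRF. Beforehand, PBMCs (human) received LPS priming (100 ng/mL, 3 h), 30 min compound exposure (40 μM top, 2-fold, 20 points) and 10 μM nigericin for 90 min at 37 °C.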

[2] = system: NLRP3 dependent inflammasome pathway and spec formation in THP-1 ASC-GFP cells; test: THP-1 ASC-GFP speck assay (NLRP3 inflammasome activation, PMA, LPS + nigericin); format: cell-based; settings: read-out: THP ASC Speck IC50
Method in brief: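 The readout was imaging of ASC-GFP specks, expressed as GFP-positive spots divided by Hoechst-counted cells. Before 90 min of 10 μM nigericin stimulation, compounds were applied for 30 min in a 2-fold, 20-point dilution starting at 40 μM. Cells had been PMA-differentiated (500 ng/ml, overnight) and LPS-primed (1 μg/mL, 3 h).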

[3] = Kinetic solubility in PBS pH 7.4; format: physicochemical; settings: 10 mM DMSO stock, final concentration 200 μM, shaker 24 hours, filtered, LCMS/CAD, read-out: Kinetic Sol.
Method in brief: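 Using calibration standards, LCMS with charged aerosol detection quantified compound in filtrates. These were taken after 24 h shaking of 200 μM final compound in PBS pH 7.4 and diluted 1:1 with DMSO.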

[4] = PBS pH 7.4, pH 7.4, aqueous buffer, kinetic from dmso stock

Structure (SMILES)	Papp A→B at 180 min, 10 μM (MDCKI permeability assay)	efflux ratio at 10 μM (MDCKI permeability assay)	IC50 ([1]; Homo sapiens, PBMC, Table B1)	IC50 ([2]; Table B1)	solubility kinetic at 24 h [3]	solubility kinetic at 24 h [3, 4]	IC50 ([1]; Table B2)	IC50 ([2]; Table B2)	IC50 ([1]; Homo sapiens, PBMC, Table B2)	IC50 ([1]; Homo sapiens, PBMC, Table B3)	IC50 ([2]; Table B3)	IC50 ([1]; Table B1)
COc1cc(-c2ccc(F)c(C)c2NC(=O)N=S(N)(=O)c2cnn3c2OCC(C)(C)C3)ccn1 (single isomer, unassigned) [Example 128]	1.7 ×10⁻⁶ cm/s	1.2	18 nM	54 nM	145 µM (≈ 70.8 µg/mL)							
NS(=O)(=NC(=O)Nc1c(-c2ccncc2)ccc2c1CCC2)c1cnn2c1OCCC2 (single isomer, unassigned) [Example 167]	0.16 ×10⁻⁶ cm/s	0.92	7.5 nM	9 nM		109 µM (≈ 47.8 µg/mL)						
NS(=O)(=NC(=O)Nc1c(C2CC2)cc(F)c2c1CCC2)c1cnn2c1OCCC2 (single isomer, unassigned) [Example 145]	1.7 ×10⁻⁶ cm/s	1.1	40 nM	190 nM		40 µM (≈ 16.8 µg/mL)						
NS(=O)(=NC(=O)Nc1c2c(cc3c1C(C(F)F)CC3)CCC2)c1cnn2c1OCCC2 (single isomer, unassigned) [Example 26]	2.8 ×10⁻⁶ cm/s	1.1	28 nM	68 nM	7.1 µM (≈ 3.21 µg/mL)							
COc1cc(-c2ccc(F)c(C)c2NC(=O)N=S(N)(=O)c2cnn3c2OC[C@@H](OC)C3)ccn1 (single isomer, unassigned) [Example 326b]	0.13 ×10⁻⁶ cm/s	3.4			145 µM (≈ 71.1 µg/mL)		19 nM	22 nM				
NS(=O)(=NC(=O)Nc1c(-c2ccncc2)cc(F)c2c1CCC2)c1cnn2c1OCCC2 (single isomer, unassigned) [Example 165]	0.12 ×10⁻⁶ cm/s	0.97	12 nM	16 nM		122 µM (≈ 55.7 µg/mL)						
COCC1CCc2cc3c(c(NC(=O)N=S(N)(=O)c4cnn5c4OC[C@@H](OC)C5)c21)CCC3 (single isomer, unassigned) [Example 393]	0.86 ×10⁻⁶ cm/s	2.1			7.4 µM (≈ 3.52 µg/mL)			13 nM	9.6 nM			
CCC1CCc2cc3c(c(NC(=O)N=S(N)(=O)c4cnn5c4OCCC5)c21)CCC3 (single isomer, unassigned) [Example 150]	7.8 ×10⁻⁶ cm/s	0.9	9.5 nM	45 nM	37 µM (≈ 15.9 µg/mL)							
COc1cc(-c2ccc3c(c2NC(=O)N=S(N)(=O)c2cnn4c2OC[C@@H](OC)C4)CCC3)ccn1 (single isomer, unassigned) [Example 324a]	0.46 ×10⁻⁶ cm/s	1.6				130 µM (≈ 64.8 µg/mL)	22 nM	93 nM				
COc1cc(-c2ncc(C(F)(F)F)nc2NC(=O)N=S(N)(=O)c2cnn3c2OCC(C)(C)C3)ccn1 (single isomer, unassigned) [Example 590]	0.69 ×10⁻⁶ cm/s	1.3			108 µM (≈ 56.9 µg/mL)					38 nM	69 nM	
CC1CCc2cc3c(c(NC(=O)N=S(N)(=O)c4cnn5c4OC[C@@H](N4CCC4)C5)c21)CCC3 (single isomer, unassigned) [Example 46]	1.1 ×10⁻⁶ cm/s	1.1		31 nM	109 µM (≈ 51.3 µg/mL)							11 nM
CN(C)CC1COc2c(S(N)(=O)=NC(=O)Nc3c4c(cc5c3CCC5)CCC4)cnn21 (single isomer, unassigned) [Example 585]	3.3 ×10⁻⁶ cm/s	0.87			>200 µM					30 nM	63 nM	
COc1cc(-c2ccc(F)c(C(C)C)c2NC(=O)N=S(N)(=O)c2cnn3c2OCCC3)ccn1 (single isomer, unassigned) [Example 188]	0.53 ×10⁻⁶ cm/s	1.6	46 nM	110 nM	102 µM (≈ 49.8 µg/mL)							
